How the values were obtained:
26S proteasome = test: Proteasome subcellular localization in cultured cells (immunofluorescence, cell fractionation/Western blot); type: cell-based, human; details: for proteasome translocation from the nucleus to the cytosol: amino acid starvation, substance added to starvation medium; for proteasome localization: non-stressed / well-fed cells, complete medium; for proteasome dynamics under known p38 activators: RT4 and HeLa cells
Experimental: Cells were incubated for 20 min in fractionation buffer [20 mM HEPES pH 7.3, 10 mM KCl, 5 mM ATP, 5 mM MgCl2, and protease inhibitor cocktail (Roche)], followed by the addition of Digitonin (0.01%). They were then mixed thoroughly and centrifuged at 1,000×g for 5 min. The supernatant was collected as cytosolic fraction, and the pellet was washed with fractionation buffer supplemented with NP-40 (0.05%) and centrifuged, and the pellet (nuclei) was resuspended in fractionation buffer supplemented with sodium deoxycholate (0.5%), followed by its sonication.
(§1) Cells were washed twice with ice cold PBS and scraped into lysis buffer (50 mM Tris-HCl, pH 7.4, 130 mM NaCl, 0.5% NP-40) supplemented with freshly added protease inhibitor cocktail, 5 mM ATP, 10 mM iodoacetamide, and 5 mM N-ethyl maleimide. Protein concentration was measured by the BCA assay according to the manufacturer's instructions (Pierce, Rockford, IL). 30 μg of cellular protein were resolved via SDS-PAGE, transferred to a nitrocellulose membrane and immunoblotted with the appropriate antibody.
Cells were seeded on glass cover slips for 36 h. Following the indicated treatments, they were fixed with 4% PFA for 15 min, washed with phosphate-buffered saline (PBS) and incubated in PBS containing 10% goat serum for 1 h at room temperature, followed by 2 h incubation with the indicated primary antibody. Following extensive wash with PBS, the fixed cells were incubated with the relevant secondary antibody for 1 h, washed and mounted. Images were acquired using Zeiss LSM 700 confocal microscope (Zeiss, Oberkochen, Germany). […]

STAT3 = test: Western blot for STAT3 phosphorylated at Tyr705; type: cell-based, human; details: Torin1 treatment
Experimental: as §1

HeLa cells = test: Amino acids level measurement (LC-MS); type: cell-based, human; details: Torin1 treatment relative to control
Experimental: Metabolic analysis was carried out as previously described [G. M. MacKay et al., 1st Ed. (Elsevier Inc., 2015)]. Briefly, cells were rapidly washed 3 times with ice-cold PBS and extracted with an aqueous solution of 50% Methanol, and 30% Acetonitrile. Samples were centrifuged at 16,000×g for 10 min at 4° C., and the supernatants were analyzed using HPLC-MS (Q-Exactive Orbitrap Mass Spectrometer (Thermo Scientific) coupled to Thermo Scientific UltiMate 3000 HPLC system). The HPLC setup consisted of a ZIC-PHILIC column (SeQuant, 150×2.1 mm, 5 μm, Merck) with a ZIC-PHILIC guard column (SeQuant, 20×2.1 mm). The aqueous mobile phase solvent was 20 mM ammonium carbonate adjusted to pH 9.4 with 0.1% ammonium hydroxide. The organic mobile phase was acetonitrile. Amino acids and other metabolites were separated over a 15 min linear gradient from 80% organic to 80% aqueous. The column temperature was 45° C., the flow rate 200 μl/min, and the run time 27 min. All metabolites were detected across a mass range of 75-1,000 m/z using the Q-Exactive mass spectrometer at a resolution of 35,000 (at 200 m/z) with electrospray ionization and polarity switching mode. Mass accuracy obtained for all metabolites was below 5 ppm. Data were acquired with Thermo Xcalibur software. The peak areas of different amino acids were determined using Thermo TraceFinder software through which metabolites were identified by the exact mass of the singly charged ion and the known retention time on the HPLC column. Commercially available standard compounds had been analyzed before to determine ion masses and retention times on the ZIC-PHILIC column. Protein quantitation based on the Lowry method was performed for normalization. The figure presents mean+/−SD of three replicates.

HeLa and RT4 cells = test: Cell survival assay (live/dead imaging); type: cell-based
Experimental: Data analysis was performed using the Live/Dead module of the MetaXpress software (Molecular Devices). […] Intensities were quantified using Li-Cor imager and software (Odyssey).

Compound: N[C@@H](Cc1ccccc1)C(=O)O [Phe, Phenylalanine]
- proteasome translocation from the nucleus to the cytosol (26S proteasome): inhibitory effect on proteasome translocation

Compound: O=[N+]([O-])c1ccc2c(c1)S(=O)(=O)C=C2 [Stattic]
- proteasome translocation from the nucleus to the cytosol (26S proteasome): prevented proteasome translocation from the nucleus to the cytosol

Compound: CCC(=O)N1CCN(c2ccc(-n3c(=O)ccc4cnc5ccc(-c6cnc7ccccc7c6)cc5c43)cc2C(F)(F)F)CC1 [Torin1]
- STAT3 Y705 phosphorylation (STAT3): upregulation of Y705 phosphorylation
- level of amino acids (HeLa cells): gain in amino acids
- proteasome localization (26S proteasome): induced nuclear export of both 20S and 19S sub-complexes

Compound: N[C@@H](Cc1c[nH]c2ccccc12)C(=O)O [Trp, Tryptophan]
- proteasome translocation from the nucleus to the cytosol (26S proteasome): inhibitory effect on proteasome translocation

Compound: N[C@@H](Cc1ccc(O)cc1)C(=O)O [Tyr, 4-hydroxyphenylalanine]
- proteasome translocation from the nucleus to the cytosol (26S proteasome): inhibitory effect on proteasome translocation

Compound: COc1ccc(C[C@H]2NC[C@H](O)[C@H]2OC(C)=O)cc1 [anisomycin]
- proteasome dynamics under known p38 activators (26S proteasome): the proteasome was locked in the nucleus
- cell death under known p38 activators (HeLa and RT4 cells): many of the cells died

Compound: C[C@@H]1C[C@@H]([C@H](O)CC2CC(=O)NC(=O)C2)C(=O)[C@@H](C)C1 [cycloheximide]
- restoration of the nuclear proteasomal pool (26S proteasome; replenishment of amino acids after starvation, in presence of substance): did not prevent restoration of the nuclear proteasomal pool

Compound: OC[C@@H](O)[C@@H](O)[C@H](O)[C@@H](O)CO [hyperosmotic stress, Sorbitol]
- proteasome dynamics under known p38 activators (26S proteasome): the proteasome was locked in the nucleus
- cell death under known p38 activators (HeLa and RT4 cells): many of the cells died

Compound: Ivermectin
- proteasome localization (26S proteasome): cytosolic accumulation

— patent US20250325508A1, “MODULATORS OF PROTEASOME DYNAMICS AND/OR FUNCTION, COMPOSITIONS, METHODS, AND THERAPEUTIC USES THEREOF” (TECHNION RESEARCH & DEVELOPMENT FOUNDATION LIMITED, priority 2022, published 2025)
